Source: patent US11858877B2 (priority 2019, dated 2024)

Key:
full length TRAF2 = target: T1, full length TRAF2 (Homo sapiens, UniProt Q12933); test: Fluorescence-based thermal shift assay of TRAF2; assay type: binding; details: 1 uM GST-TRAF2, melt curve 25-99° C.
T1 construct: dose-dependent stabilizing effect on full length TRAF2; purchased Rockland
T1 sequence (Q12933 1-501): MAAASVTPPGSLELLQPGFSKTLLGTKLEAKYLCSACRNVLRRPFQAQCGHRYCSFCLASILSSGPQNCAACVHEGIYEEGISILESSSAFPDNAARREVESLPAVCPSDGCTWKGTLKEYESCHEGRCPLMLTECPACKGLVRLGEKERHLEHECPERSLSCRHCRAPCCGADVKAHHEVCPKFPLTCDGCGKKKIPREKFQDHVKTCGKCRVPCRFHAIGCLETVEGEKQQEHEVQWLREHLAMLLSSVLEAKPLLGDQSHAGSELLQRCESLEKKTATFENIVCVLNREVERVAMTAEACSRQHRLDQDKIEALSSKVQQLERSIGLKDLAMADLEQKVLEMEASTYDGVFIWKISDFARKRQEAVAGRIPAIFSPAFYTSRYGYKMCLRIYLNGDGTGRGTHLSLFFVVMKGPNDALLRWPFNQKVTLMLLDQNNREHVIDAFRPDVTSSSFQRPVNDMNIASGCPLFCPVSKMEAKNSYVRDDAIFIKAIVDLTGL
Protocol: To test whether the compounds interact with TRAF2 in vitro, the thermal stability of purified TRAF2 in the presence of each compound was measured.
TRAF2—compound interactions were measured by fluorescence-based thermal shift using an Applied Biosystems ABI QuantStudio(TM) 6 Flex System. […] PCR plates were covered with optical seal, shaken, and centrifuged after protein and compounds were added. The instrument was programmed in the Melt Curve mode and the Standard speed run. The reporter was selected as Rox and None for the quencher. Each melt curve was programmed as follows: 25° C. for 2 min, followed by a 0.05° C. increase per second from 25° C. to 99° C., and finally 99° C. for 2min. Fluorescence intensity was collected continuously. In the Melt Curve Filter section, X4 (580 ±10)-M4 (623±14) was selected for the Excitation Filter-Emission Filter. The raw data was extracted in MS-Excel format.

[1] = target: T2, recombinant activated IKKβ (Homo sapiens, UniProt O14920); test: In vitro IKKβ kinase assay (ADP-Glo); assay type: biochemical; details: for IKKβ kinase activity: at 10-fold higher concentrations than used in cell-based experiments; for inhibitory activity over IKKβ kinase activity: at the concentrations used in this study
T2 construct: purchased Promega V4502
T2 sequence (O14920 1-756): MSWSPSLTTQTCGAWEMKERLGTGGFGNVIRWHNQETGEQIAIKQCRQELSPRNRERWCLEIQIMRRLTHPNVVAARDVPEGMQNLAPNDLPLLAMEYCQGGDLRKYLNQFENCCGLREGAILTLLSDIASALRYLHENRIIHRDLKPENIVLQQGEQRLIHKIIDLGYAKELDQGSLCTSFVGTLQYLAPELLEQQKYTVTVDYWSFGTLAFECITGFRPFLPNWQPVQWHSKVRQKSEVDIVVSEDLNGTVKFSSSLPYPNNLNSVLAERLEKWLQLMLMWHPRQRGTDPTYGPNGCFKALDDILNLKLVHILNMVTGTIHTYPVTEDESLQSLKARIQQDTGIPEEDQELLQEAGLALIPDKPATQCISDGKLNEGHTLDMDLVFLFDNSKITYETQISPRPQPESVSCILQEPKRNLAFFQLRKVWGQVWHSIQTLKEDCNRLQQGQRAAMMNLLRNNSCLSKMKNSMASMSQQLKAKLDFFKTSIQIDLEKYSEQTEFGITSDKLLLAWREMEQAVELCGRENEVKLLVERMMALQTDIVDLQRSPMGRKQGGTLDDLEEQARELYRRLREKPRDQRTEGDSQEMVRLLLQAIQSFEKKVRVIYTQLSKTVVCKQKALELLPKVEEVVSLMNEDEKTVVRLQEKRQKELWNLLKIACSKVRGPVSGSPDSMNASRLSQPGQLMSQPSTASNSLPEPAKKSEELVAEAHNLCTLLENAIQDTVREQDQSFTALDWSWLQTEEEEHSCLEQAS
Protocol: 1× kinase buffer A (40 mM Tris-HCl pH 7.4, 20 mM MgCl2, 0.1 mg/mL BSA, supplemented with 2 mM MnCl2, 2 mM DTT and 100 μM Sodium vanadate) was used to prepare all components of the reaction. All components were prepared in a 96-well plate and transferred to every other well of a 384-well opaque plate (Sigma-Aldrich, CLS3825-10EA) using a multichannel pipet. A 2.5× ATP/IKKtide substrate mix (62.5 μM ATP mixed with 0.5 μg/μL IKKtide) was prepared, and a 5× concentration of the indicated concentration of compounds in 0.5% DMSO, maintaining a final DMSO concentration of 0.1% in all reactions. […] The plate was briefly spun, and the reaction incubated at room temperature for 1 h. Next, 5 μL of ADP-Glo reagent were added to each well, spun and incubated for 40 minutes at room temperature. Finally, 10 μL of Kinase Detection Reagent were added to each well and incubated for 30 minutes at room temperature. Luminescence from each well was measured using an integration time of 500 ms in a M4 microplate reader (SpectraMax). Data from triplicate reactions were extracted and plotted.

U2OS cells = test: Compound toxicity comparison, LIVE/DEAD Cell Imaging Kit; assay type: cell-based, human; details: 10 μM, 2 h, 16 h or 24 h
Protocol: Cytotoxicity of the three compounds was compared with Bay 11-7082 (Cayman, 10010266), an inhibitor of the NF-κB pathway at working concentrations of 1-10 μM, using the LIVE/DEAD Cell Imaging Kit (488/570) (Invitrogen, R37601). For each condition, 15,000 U2OS cells were seeded in 200 μL of growth medium in each well of 96-well plate 48 h before microscopy. Next, medium was changed to medium containing either DMSO, 10 μM of indicated compound, or 10 μM of Bay 11-7082 for the indicated duration (2 h, 16 h, or 24 h). Before imaging, medium was changed to phenol red-free FluoBrite DMEM (Gibco, A18967-01) containing 300 ng/mL of Hoechst 33342, and 1:10000 of both Live Green and Dead Red dyes of the LIVE/DEAD Cell Imaging Kit. Cells were incubated for 60 minutes and imaged on the Delta Vision Elite imaging system at 20× magnification with a […] objective (0.45NA; Olympus). Analysis was done using Cell Profiler to segment cells and quantify median nuclear intensity values. Further analysis was performed using custom scripts in MATLAB. Data from biological triplicates were plotted as the mean ± SD.

IKKγ = test: Western blot of IKKγ expression in CRISPR-modified U2OS cells; assay type: cell-based, human; details: Actin-corrected band intensity
Protocol: U2OS cells (parental and expressing EGFP-RelA/IKKγ via CRISPR Knock-in) were cultured for 24 hrs in complete growth medium. After treatments, cells were lysed in SDS-based lysis buffer consisting of 120 mM Tris-Cl, pH 6.8, 4% SDS supplemented with protease and phosphatase inhibitors at 4° C. for 30 min. Protein extracts were clarified by centrifugation at 4° C. at 12,000×g for 10 min. Lysate protein levels were quantified by BCA assay (Pierce). Samples were separated by SDS-PAGE, 25 μg total protein per lane, then transferred to PVDF membranes. Blocking was done in 5% milk in TBS for 1 hour. Primary antibodies directed at RelA and β-actin (#4764 and #3700 respectively; Cell Signaling Technology), IKKγ and GAPDH (sc-8330 and sc25778 respectively; Santa Cruz) were diluted in 5% milk in TBS-T and incubated overnight at 4° C. Alexa 680/800-conjugated secondary antibodies (LICOR) were used in combination with an Odyssey (LI-COR) scanner for detection and quantification of band intensities.

mature TNFR1 complex = test: Live-cell imaging of FP-IKK puncta in TNF-stimulated U2OS cells; assay type: cell-based, human; details: pretreated with compound before 100 ng/mL TNF
Protocol: (§1) Live cells were imaged in an environmentally controlled chamber (37° C., 5% CO2) on a DeltaVision Elite microscope equipped with a pco.edge sCMOS camera and an Insight solid-state illumination module (GE). U2OS cells expressing FP-RelA/IKKγ were seeded at a density of 25000 cells/well 24 hours prior to live-cell imaging experiments on no. 1.5 glass bottom 96 well imaging plates (Matriplate). For imaging of FP-RelA nuclear translocation, live-cells were pre-treated with DMSO or indicated concentrations of compounds for 2 hours before exposure to either 100 ng/ml recombinant human TNF (Peprotech) or 100 ng/ml recombinant human IL1β (Peprotech). Wide-field epifluorescence and DIC images were collected using a 20× […] objective (0.45NA; Olympus). Cells were imaged for at least 30 minutes prior to addition of compounds. For detection of IKKγ puncta, live-cells were pre-treated with DMSO or indicated concentration of compounds for 2 hours before exposure to 100 ng/ml TNF. Wide-field epifluorescence and DIC images were collected using a 60× […] objective. […] Time-lapse images were collected over at least 4 fields per condition with a temporal resolution of 5 minutes per frame. Quantification of nuclear FP-RelA localization and the formation IKKγ puncta from flat-field and background corrected images was performed using customized scripts in Matlab and ImageJ.

[2] = tested on: IL1-induced dynamics of nuclear NF-kB; test: Live-cell imaging of IL1-induced nuclear FP-RelA (NF-kB) dynamics in U2OS cells; assay type: cell-based, human; details: 10 μM compound, 100 ng/mL IL1
Protocol: Live cells were imaged in an environmentally controlled chamber (37° C., 5% CO2) on a DeltaVision Elite microscope equipped with a pco.edge sCMOS camera and an Insight solid-state illumination module (GE). U2OS cells expressing FP-RelA/IKKγ were seeded at a density of 25000 cells/well 24 hours prior to live-cell imaging experiments on no. 1.5 glass bottom 96 well imaging plates (Matriplate). For imaging of FP-RelA nuclear translocation, live-cells were pre-treated with DMSO or indicated concentrations of compounds for 2 hours before exposure to either 100 ng/ml recombinant human TNF (Peprotech) or 100 ng/ml recombinant human IL1β (Peprotech). Wide-field epifluorescence and DIC images were collected using a 20× […] objective (0.45NA; Olympus). […] Quantification of nuclear FP-RelA localization and the formation IKKγ puncta from flat-field and background corrected images was performed using customized scripts in Matlab and ImageJ.
For permutation tests, data from the TNF-only and the indicated experimental condition were combined and randomly distributed into ‘Permuted control’ and ‘Permuted experimental’ bins without replacement, preserving the size of the original control and experimental data sets. 10^6 permutations were performed and the difference between the means of permuted control and experimental data were calculated for each condition to generate a histogram. […]

[3] = tested on: TNF-induced nuclear translocation of NF-kB; test: Live-cell imaging of TNF-induced nuclear FP-RelA (NF-kB) translocation in single U2OS cells; assay type: cell-based, human; details: for Maximum fold change (Max) of nuclear FP-RelA / area under the fold change curve (AUC) of nuclear FP-RelA: 10 μM compound pretreatment before addition of TNF; for potency in restricting the signaling network upstream of NF-kB activation: TNF-stimulated U2OS FP-RelA cells; for nuclear mobilization of NF-kB: U2OS FP-RelA cells pre-treated with compound before exposure to TNF
Protocol: Rep., 22:585-599 (2018)).
To quantify the compounds' effect on NF-kB dynamics, each single-cell trajectory was decomposed into a series of descriptors (FIG. 3c) that transmit information within the cell about extracellular cytokine concentrations (Zhang et al., Cell. Syst., 5:638-645 e635 (2017)).
as §1
For permutation tests, data from the TNF-only and the indicated experimental condition were combined and randomly distributed into ‘Permuted control’ and ‘Permuted experimental’ bins without replacement, preserving the size of the original control and experimental data sets. 10^6 permutations were performed and the difference between the means of permuted control and experimental data were calculated for each condition to generate a histogram. Two-tailed p-values were determined by computing the fraction of permuted data sets where Δmeanpermuted≥Δmeanunpermuted (FIGS. 12, 13, and 15).

Row | Structure (SMILES) | dose-dependent stabilizing effect on full length TRAF2 (thermal shift) (full length TRAF2) | IKKβ kinase activity [1] | inhibitory activity over IKKβ kinase activity [1] | cytotoxicity (fraction of surviving cells) (U2OS cells) | overall expression level of IKKγ (IKKγ) | number of TNF-induced FP-IKK puncta (mature TNFR1 complex) | IL1-induced dynamics of nuclear NF-kB vs IL1-only control cells [2] | Maximum fold change (Max) of nuclear FP-RelA [3] | area under the fold change curve (AUC) of nuclear FP-RelA [3] | potency in restricting the signaling network upstream of NF-kB activation [3] | nuclear mobilization of NF-kB [3]
1 | CC(C)CN1CCN(C(=O)COC(=O)c2ccc(S(C)(=O)=O)c([N+](=O)[O-])c2)CC1 [Compound 2] | subtle | not inhibited | no direct inhibitory activity | low cytotoxicity | reduced | greatly reduced | indistinguishable | significantly less | significantly less | low micromolar potency | reduced with increasing concentration
2 | CCC(OC(=O)c1ccc(S(C)(=O)=O)c([N+](=O)[O-])c1)C(=O)NC1C2CC3CC(C2)CC1C3 (stereo not shown) [Compound 3] | moderate | not inhibited | no direct inhibitory activity | low cytotoxicity | reduced | greatly reduced | indistinguishable | significantly less | significantly less | low micromolar potency | reduced with increasing concentration
